In PMC10087438 (The Febs Journal, 2022):

Tests used:
[1] = molecular target: T1, LmNADK (NADK 1 from Listeria monocytogenes) (Listeria monocytogenes, UniProt Q8Y8D7); assay: enzyme inhibition; type: biochemical
T1 sequence (Q8Y8D7 1-264): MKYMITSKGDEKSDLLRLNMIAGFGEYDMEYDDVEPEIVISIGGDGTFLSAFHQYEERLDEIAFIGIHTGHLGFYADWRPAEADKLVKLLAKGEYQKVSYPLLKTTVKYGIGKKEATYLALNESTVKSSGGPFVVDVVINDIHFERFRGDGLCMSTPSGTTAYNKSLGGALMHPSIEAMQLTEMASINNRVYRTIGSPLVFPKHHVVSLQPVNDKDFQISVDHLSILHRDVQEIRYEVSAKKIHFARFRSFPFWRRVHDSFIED

[2] = molecular target: T2, PaNADK (NAD kinase from Pseudomonas aeruginosa) (Pseudomonas aeruginosa, UniProt Q9HZC0); assay: G6PDH-coupled enzyme assay, global competitive inhibition fit; type: biochemical
T2 sequence (Q9HZC0 1-295): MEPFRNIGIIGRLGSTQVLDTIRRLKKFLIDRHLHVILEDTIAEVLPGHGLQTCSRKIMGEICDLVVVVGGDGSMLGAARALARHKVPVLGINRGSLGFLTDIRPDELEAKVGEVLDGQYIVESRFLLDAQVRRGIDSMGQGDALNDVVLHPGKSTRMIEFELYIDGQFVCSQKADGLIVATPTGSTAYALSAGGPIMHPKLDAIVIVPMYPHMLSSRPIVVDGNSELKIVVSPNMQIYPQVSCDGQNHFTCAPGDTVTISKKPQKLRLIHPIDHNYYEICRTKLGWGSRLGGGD

[3] = molecular target: T2, PaNADK (NAD kinase from Pseudomonas aeruginosa); assay: X-ray crystal structure, […] Å; type: binding
purified protein [4] = substrate: Nc1ncnc2c1ncn2[C@@H]1O[C@H](COP(=O)(O)OP(=O)(O)OP(=O)(O)O)[C@@H](O)[C@H]1O; assay: purified protein; settings: Mg2+
purified protein [5] = substrate: NC(=O)c1ccc[n+]([C@@H]2O[C@H](COP(=O)([O-])OP(=O)(O)OC[C@H]3O[C@@H](n4cnc5c(N)ncnc54)[C@H](O)[C@@H]3O)[C@@H](O)[C@H]2O)c1; assay: purified protein; settings: MgATP

Question: What does the source list for NC(=O)c1cccc([C@@H]2O[C@H](COCC#Cc3nc4c(N)ncnc4n3[C@@H]3O[C@H](CO)[C@@H](O)[C@H]3O)[C@@H](O)[C@H]2O)c1 [compound 1, 5‐O ‐[3‐(adenosin‐8‐yl)prop‐2‐yn‐1‐yl]‐1‐deoxy‐1‐(3‐carbamoylphenyl)‐β‐D‐ribofuranose]?
Answer: Ki [1]: 3.2 ± 0.4 µM; Ki [2]: 4.6 ± 0.3 µM

Question: For NC(=O)c1ccc[n+]([C@@H]2O[C@H](COP(=O)([O-])OP(=O)(O)OC[C@H]3O[C@@H](n4cnc5c(N)ncnc54)[C@H](OP(=O)(O)O)[C@@H]3O)[C@@H](O)[C@H]2O)c1 [NADP^+], which “X-ray crystal structure, 2.3 Å” value [3] is on record?
Answer: we determined the atomic structure of the protein bound to NADP^+ by X‐ray crystallography

B1: PaNADK (NAD kinase from Pseudomonas aeruginosa) (Pseudomonas aeruginosa PAO1) (protein)
chain: MEPFRNIGIIGRLGSTQVLDTIRRLKKFLIDRHLHVILEDTIAEVLPGHGLQTCSRKIMGEICDLVVVVGGDGSMLGAARALARHKVPVLGINRGSLGFLTDIRPDELEAKVGEVLDGQYIVESRFLLDAQVRRGIDSMGQGDALNDVVLHPGKSTRMIEFELYIDGQFVCSQKADGLIVATPTGSTAYALSAGGPIMHPKLDAIVIVPMYPHMLSSRPIVVDGNSELKIVVSPNMQIYPQVSCDGQNHFTCAPGDTVTISKKPQKLRLIHPIDHNYYEICRTKLGWGSRLGGGD
Question: With B1 as the molecule, how does the Km (purified protein [4]) read?
Answer: 2 mM

Question: What about the Km (purified protein [5]) of the same molecule?
Answer: 0.15 mM
